From patent US20080009511A1, “Cancer treatment with compounds inhibiting PKC alpha” (priority 2004, published 2008)

How the values were obtained:
[1] = tested on: A431 human epidermoid carcinoma cells; test: Cell viability assay (trypan blue dye exclusion), viable cells counted at day 6; format: cell-based; conditions: 10 micromoles; for Treated (cell number × 10^5): about 4×10^4 cells seeded, untreated 5.4 ± 0.4; for % inhibiton: growth vs untreated
Protocol: (§1) The following cancer cells were maintained in Dulbecco's modified Eagle medium (DMEM) supplemented with 10 percent bovine calf serum. Cells were seeded for 24 hours. Then they were treated with PKC inhibitors or left untreated. The cells were then collected periodically and evaluated using trypan blue dye exclusion to assess viability using the method described by C Y Chen, et al., in J. Biol. Chem. 273:16700-16709. Cultures containing about 4×10^4 cells were treated with 5 micromoles of Gö7874 (except that PC3 prostate cancer cells were treated with 10 micromoles) and the viable cells were counted at day 6. […] Cultures containing about 4×10^4 cells were treated with or without 10 micromoles of Gö6850 and the viable cells were counted at day 6. […] Cultures containing about 4×10^4 cells were treated with or without 10 micromoles of NGIC-I and the viable cells were counted at day 6. […] Cultures containing about 4×10^4 cells were treated with or without 10 micromoles of Ro31-7549 and the viable cells were counted at day 6. […] Cultures containing about 4×10^4 cells were treated with or without 10 micromoles of Ro31-8220 and the viable cells were counted at day 6. […] Cultures containing about 4×10^4 cells were treated with or without 10 micromoles of Ro31-8425 and the viable cells were counted at day 6. […] Cultures containing about 4×10^4 cells were treated with or without 10 micromoles of Ro31-0432 and the viable cells were counted at day 6.

[2] = tested on: AGS human gastric cancer cells; test: as above; format: cell-based; conditions: 10 micromoles; for Treated (cell number × 10^5): about 4×10^4 cells seeded, untreated 2.4 ± 0.3; for % inhibiton: growth vs untreated
Protocol: as §1

[3] = tested on: H460 human lung cancer cells; test: as above; format: cell-based; conditions: 10 micromoles; for Treated (cell number × 10^5): about 4×10^4 cells seeded, untreated 2.4 ± 0.2; for % inhibiton: growth vs untreated
Protocol: as §1

[4] = tested on: HT29 human colon cancer cells; test: as above; format: cell-based; conditions: 10 micromoles; for Treated (cell number × 10^5): about 4×10^4 cells seeded, untreated 3.8 ± 0.4; for % inhibiton: growth vs untreated
Protocol: as §1

[5] = tested on: Hela human cervical cancer cells; test: as above; format: cell-based; conditions: 10 micromoles; for Treated (cell number × 10^5): about 4×10^4 cells seeded, untreated 3.4 ± 0.4; for % inhibiton: growth vs untreated
Protocol: as §1

[6] = tested on: HepG2 human liver cancer cells; test: as above; format: cell-based; conditions: 10 micromoles; for Treated (cell number × 10^5): about 4×10^4 cells seeded, untreated 4.2 ± 0.4; for % inhibiton: growth vs untreated
Protocol: as §1

[7] = tested on: Jurkat cells (a human acute T-cell leukemia cell line); test: as above; format: cell-based; conditions: 10 micromoles; for Treated (cell number × 10^5): about 4×10^4 cells seeded, untreated 8.8 ± 0.4; for % inhibiton: growth vs untreated
Protocol: as §1

[8] = tested on: MDA-MB-468 human breast cancer cells; test: as above; format: cell-based; conditions: 10 micromoles; for % inhibiton: growth vs untreated
Protocol: as §1

[9] = tested on: NBT-II human bladder cancer cells; test: as above; format: cell-based; conditions: 10 micromoles; for Treated (cell number × 10^5): about 4×10^4 cells seeded, untreated 2.9 ± 0.4; for % inhibiton: growth vs untreated
Protocol: as §1

[10] = tested on: PANC-1 human pancreatic carcinoma cells; test: as above; format: cell-based; conditions: 10 micromoles; for Treated (cell number × 10^5): about 4×10^4 cells seeded, untreated 2.1 ± 0.3; for % inhibiton: growth vs untreated
Protocol: as §1

[11] = tested on: PC3 human prostate cancer cells; test: as above; format: cell-based; conditions: 10 micromoles; for Treated (cell number × 10^5): about 4×10^4 cells seeded, untreated 7.1 ± 0.3; for % inhibiton: growth vs untreated
Protocol: as §1

[12] = tested on: U251 human glioma cells; test: as above; format: cell-based; conditions: 10 micromoles; for Treated (cell number × 10^5): about 4×10^4 cells seeded, untreated 9.6 ± 0.5; for % inhibiton: growth vs untreated
Protocol: as §1

[13] = tested on: KB oral cancer cells; test: as above; format: cell-based, human; conditions: 10 micromoles; for Treated (cell number × 10^5): about 4×10^4 cells seeded, untreated 3.8 ± 0.4; for % inhibiton: growth vs untreated
Protocol: as §1

[14] = tested on: human cancer cells; test: Cell viability assay, summary over the panel of cancer cells; format: cell-based; conditions: 10 micromoles; day 6; cell lines not named as going to apoptosis
Protocol: The following cancer cells were maintained in Dulbecco's modified Eagle medium (DMEM) supplemented with 10 percent bovine calf serum. Cells were seeded for 24 hours. Then they were treated with PKC inhibitors or left untreated. The cells were then collected periodically and evaluated using trypan blue dye exclusion to assess viability using the method described by C Y Chen, et al., in J. Biol. Chem. 273:16700-16709. Cultures containing about 4×10^4 cells were treated with or without 10 micromoles of Gö6850 and the viable cells were counted at day 6. […] Cultures containing about 4×10^4 cells were treated with or without 10 micromoles of NGIC-I and the viable cells were counted at day 6. […] Cultures containing about 4×10^4 cells were treated with or without 10 micromoles of Ro31-7549 and the viable cells were counted at day 6. […] Cultures containing about 4×10^4 cells were treated with or without 10 micromoles of Ro31-8220 and the viable cells were counted at day 6. […] Cultures containing about 4×10^4 cells were treated with or without 10 micromoles of Ro31-8425 and the viable cells were counted at day 6. […] Cultures containing about 4×10^4 cells were treated with or without 10 micromoles of Ro31-0432 and the viable cells were counted at day 6.

Row | Structure (SMILES) | Treated (cell number × 10^5) [1] | % inhibiton [1] | Treated (cell number × 10^5) [2] | % inhibiton [2] | Treated (cell number × 10^5) [3] | % inhibiton [3] | Treated (cell number × 10^5) [4] | % inhibiton [4] | Treated (cell number × 10^5) [5] | % inhibiton [5] | Treated (cell number × 10^5) [6] | % inhibiton [6] | Treated (cell number × 10^5) [7] | % inhibiton [7] | % inhibiton [8] | Treated (cell number × 10^5) [9] | % inhibiton [9] | Treated (cell number × 10^5) [10] | % inhibiton [10] | Treated (cell number × 10^5) [11] | other results
1 | CN(C)CCCn1cc(C2=C(c3c[nH]c4ccccc34)C(=O)NC2=O)c2ccccc21 [Gö6850, 2-[1-(3-Dimethylaminopropyl)-1H-indol-3-yl]-3-(1H-indol-3-yl)-maleimide] | 4.1 × 10^5 | 24% | 1.5 × 10^5 | 34% | 1.6 × 10^5 | 31% | 2.4 × 10^5 | 22% | 0.3 × 10^5 | * (indicates the inhibitor causes significant cell death, and cell number is less than originally seeded cell number.) | 2.4 × 10^5 | 41% | 4.1 × 10^5 | 53% | 25% | 1.3 × 10^5 | 57% | 1.4 × 10^5 | 30% | 2.8 × 10^5 | cell numbers of treated cells [5]: significantly reduced cell numbers; Treated (cell number × 10^5) ([8]; about 4×10^4 cells seeded, untreated 6.1 ± 0.4): 4.6 ± 0.2 × 10^5; % inhibiton [11]: 60%; Treated (cell number × 10^5) [12]: 7.2 × 10^5; % inhibiton [12]: 23%; Treated (cell number × 10^5) [13]: 1.7 × 10^5; % inhibiton [13]: 55%; inhibition of growth in contrast to untreated cells, range over the other treated cancer cells [14]: 25-60%
2 | N#CCCn1c2ccccc2c2c3c(c4c5ccccc5[nH]c4c21)C(=O)NC3 [NGIC-I, 12-propanenitrile,5,6,7,13-tetrahydro-5-oxo-12H-Indolo[2,3-a]pyrrolo[3,4-c]carbazole] | 2.7 × 10^5 | 49% | 1.7 × 10^5 | 30% | 1.6 × 10^5 | 32% | 3.2 × 10^5 | 15% | 0.3 × 10^5 | * (indicates the inhibitor causes significant cell death, and cell number is less than originally seeded cell number.) | 0.9 × 10^5 | 78% | 0.2 × 10^5 | * (indicates the inhibitor causes significant cell death, and cell number is less than originally seeded cell number.) | 78% | 0.9 × 10^5 | 73% | 1.2 × 10^5 | 44% | 3.7 × 10^5 | originally seeded cells survived [5]: 75%; originally seeded cells survived [7]: About 50%; % inhibiton [11]: 48%; Treated (cell number × 10^5) [12]: 1.6 × 10^5; % inhibiton [12]: 82%; cells that went to apoptosis upon treatment [13]: all; Treated (cell number × 10^5) [13]: 0 × 10^5; % inhibiton [13]: * (indicates the inhibitor causes significant cell death, and cell number is less than originally seeded cell number.); inhibition of growth in contrast to untreated cells, range over the other treated cancer cells [14]: 25-82%
